According to publication PMC11786100, “Chronic GIPR agonism results in pancreatic islet GIPR functional desensitisation” (Molecular Metabolism, 2025):

Legend:
SNAP-tagged mouse GIPR = target: T1, SNAP-tagged mouse GIPR (Mus musculus, UniProt Q0P543); test: Internalisation and receptor surface expression assays in AD-293 cells; format: cell-based; conditions: 1 μM, 1-hour treatment, BG-S-S-649/Mesna, n = 3–4
T1 construct: host or cells: AD-293
T1 sequence (Q0P543 19-460): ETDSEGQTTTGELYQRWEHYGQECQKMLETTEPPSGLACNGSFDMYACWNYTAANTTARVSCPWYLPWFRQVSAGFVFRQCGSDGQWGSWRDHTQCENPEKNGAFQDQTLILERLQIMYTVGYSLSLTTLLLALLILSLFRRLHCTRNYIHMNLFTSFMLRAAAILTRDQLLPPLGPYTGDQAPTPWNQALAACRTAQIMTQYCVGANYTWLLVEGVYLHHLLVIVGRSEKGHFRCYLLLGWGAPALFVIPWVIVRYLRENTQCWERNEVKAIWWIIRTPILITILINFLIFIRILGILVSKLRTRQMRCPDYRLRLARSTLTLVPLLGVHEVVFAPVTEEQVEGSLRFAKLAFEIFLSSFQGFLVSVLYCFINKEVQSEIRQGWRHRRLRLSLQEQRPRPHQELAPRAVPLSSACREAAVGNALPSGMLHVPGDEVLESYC
Method: AD-293 cells were transfected with desired plasmid DNA encoding a SNAP-tagged G-protein coupled receptor (GPCR) 24 h prior to assay. For 1 h internalisation assays, cells were labelled for 10 min with cleavable SNAP-tag probe BG-S-S-649 (New England BioLabs, US). Following 1 h treatment with specified peptide, cells were imaged at baseline and after addition of 2-mercaptoethane sulfonate (Mesna). For 4-hour GPCR surface expression assays, cells were treated with the specified peptide for 4 h, prior to 10-minute labelling with BG-S-S-649 and imaging.
AD-293 cells were added to a 96-well plate and maintained in 200 μl complete DMEM. […]
For 1 hour internalisation assays, cells were labelled with cleavable SNAP-tag probe BG-S-S-649 (New England BioLabs, US) in complete DMEM for 10 minutes prior to washing and 1 hour treatment with specified peptide, reconstituted in DMEM + 0.1% BSA. […] GPCR internalisation was quantified as the cell fluorescence following Mesna addition (representing internalised GPCR), corrected for the baseline cell fluorescence (representing total cellular GPCR).
For 4-hour GPCR surface expression assays, cells were treated with specified peptide for 4 hours in complete DMEM prior to labelling with BG-S-S-649. […] GPCR surface expression following peptide treatment was quantified as cell fluorescence as a percentage of cell fluorescence following vehicle treatment.

mouse SNAP-tagged GLP-1R = target: T2, mouse SNAP-tagged GLP-1R (Mus musculus, UniProt O35659); test: β-arrestin-2 activation assay (Borealis sensor) in AD-293 cells; format: cell-based; conditions: 10 nM, 30-minute stimulation, n = 5–6
T2 construct: host or cells: AD-293
T2 sequence (O35659 22-463): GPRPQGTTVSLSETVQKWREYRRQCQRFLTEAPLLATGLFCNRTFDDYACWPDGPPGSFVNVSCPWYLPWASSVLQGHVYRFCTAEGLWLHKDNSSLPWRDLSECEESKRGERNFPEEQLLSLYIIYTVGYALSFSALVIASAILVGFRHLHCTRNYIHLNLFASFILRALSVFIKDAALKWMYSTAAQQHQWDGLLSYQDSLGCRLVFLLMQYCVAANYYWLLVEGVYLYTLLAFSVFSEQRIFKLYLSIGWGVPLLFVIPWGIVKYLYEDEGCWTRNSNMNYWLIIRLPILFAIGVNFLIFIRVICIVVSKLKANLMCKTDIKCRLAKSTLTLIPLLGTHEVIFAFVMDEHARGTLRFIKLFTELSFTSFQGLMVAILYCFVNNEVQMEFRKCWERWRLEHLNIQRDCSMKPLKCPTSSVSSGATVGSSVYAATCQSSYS
Method: AD-293 cells were transfected with desired plasmid DNA encoding a SNAP-tagged GPCR alongside transduction of Bacmam viral particles encoding the Borealis β-arrestin-2 sensor (Montana Molecular, US) and GRK5 (Montana Molecular, US) 24 h prior to assay. Cells were labelled for 10 min with BG-S-S-649 and imaged at baseline and for 30 min following peptide stimulation. Borealis arrestin sensor fluorescence in BG-S-S-649 labelled cells (representing GPCR expressing cells) was quantified and expressed as a % change from baseline. Full details are provided in the supplementary methods.
AD-293 cells were added to a 96-well plate and maintained in 200 μL complete DMEM. […]
Cells were labelled with cleavable SNAP-tag probe BG-S-S-649 in complete DMEM for 10 minutes prior to washing and imaging. […] Cells were imaged at baseline, registering both BG-S-S-649 fluorescence and borealis arrestin sensor fluorescence. Borealis arrestin sensor fluorescence was then imaged for 30 minutes after peptide addition in intervals of 5 minutes. Borealis arrestin sensor fluorescence in BG-S-S-649 labelled cells was quantified using Fiji v1.54f (NIH) and expressed as a % change from baseline.

β-arrestin-2 activation compared to vehicle control (mouse SNAP-tagged GLP-1R)	Molecule	receptor internalisation compared to vehicle (SNAP-tagged mouse GIPR)
–	CC[C@H](C)[C@H](NC(=O)[C@H](CO)NC(=O)[C@H](Cc1ccc(O)cc1)NC(=O)[C@H](CC(=O)O)NC(=O)[C@H](CO)NC(=O)[C@@H](NC(=O)[C@H](Cc1ccccc1)NC(=O)[C@@H](NC(=O)CNC(=O)[C@H](CCC(=O)O)NC(=O)C(C)(C)NC(=O)[C@@H](N)Cc1ccc(O)cc1)[C@@H](C)O)[C@@H](C)CC)C(=O)N[C@@H](C)C(=O)N[C@@H](CC(C)C)C(=O)N[C@@H](CC(=O)O)C(=O)N[C@@H](CCCCN)C(=O)N[C@H](C(=O)N[C@@H](Cc1c[nH]cn1)C(=O)N[C@@H](CCC(N)=O)C(=O)N[C@@H](CCC(N)=O)C(=O)N[C@@H](CC(=O)O)C(=O)N[C@@H](Cc1ccccc1)C(=O)N[C@H](C(=O)N[C@@H](CC(N)=O)C(=O)N[C@@H](Cc1c[nH]c2ccccc12)C(=O)N[C@@H](CC(C)C)C(=O)N[C@@H](CC(C)C)C(=O)N[C@@H](C)C(=O)N[C@@H](CCC(N)=O)C(=O)N[C@@H](CCCCN)C(=O)NCC(=O)N[C@@H](CCCCNC(=O)CC[C@H](NC(=O)CCCCCCCCCCCCCCCCCCC(=O)O)C(=O)O)C(=O)N[C@@H](CCCCN)C(=O)N[C@@H](CC(N)=O)C(=O)N[C@@H](CC(=O)O)C(=O)N[C@@H](Cc1c[nH]c2ccccc12)C(=O)N[C@@H](CCCCN)C(=O)N[C@@H](Cc1c[nH]cn1)C(=O)N[C@@H](CC(N)=O)C(=O)N[C@H](C(=O)N[C@H](C(=O)N[C@@H](CCC(N)=O)C(=O)O)[C@@H](C)O)[C@@H](C)CC)C(C)C)[C@@H](C)CC [GIP108]	did not increase mouse GIPR internalisation
significant β-arrestin-2 activation	GLP-1(7–36)·NH2	–
